Measured values published in patent publication US20250235460A1, “COMBINATION THERAPY USING GLUCOSE-DEPENDENT INSULINOTROPIC POLYPEPTIDE RECEPTOR ANTAGONIST COMPOUNDS AND GLP-1 RECEPTOR AGONIST COMPOUNDS” (Pfizer Inc., priority 2024, published 2025).

Biological target: human GLP-1R (Homo sapiens, UniProt P43220, G168S)
Test: CHO GLP-1R Clone H6 cAMP HTRF agonist assay (Assay 1, high receptor density)
Format: cell-based
Conditions: for EC50: CHO GLP-1R clone H6, cAMP HTRF, geometric mean; for Emax: CHO GLP-1R clone H6, arithmetic mean, relative to saturating GLP-1 (1 μM), read-out: Assay 1 Emax (%)
Text: In Table 5 and Table 6, assay data are presented to two (2) significant figures as the geometric mean (EC50s) and arithmetic mean (Emax) based on the number of replicates listed (Number). A blank cell means there was no data for that Example or the Emax was not calculated.

human GLP-1R, sequence (P43220 24-463 G168S): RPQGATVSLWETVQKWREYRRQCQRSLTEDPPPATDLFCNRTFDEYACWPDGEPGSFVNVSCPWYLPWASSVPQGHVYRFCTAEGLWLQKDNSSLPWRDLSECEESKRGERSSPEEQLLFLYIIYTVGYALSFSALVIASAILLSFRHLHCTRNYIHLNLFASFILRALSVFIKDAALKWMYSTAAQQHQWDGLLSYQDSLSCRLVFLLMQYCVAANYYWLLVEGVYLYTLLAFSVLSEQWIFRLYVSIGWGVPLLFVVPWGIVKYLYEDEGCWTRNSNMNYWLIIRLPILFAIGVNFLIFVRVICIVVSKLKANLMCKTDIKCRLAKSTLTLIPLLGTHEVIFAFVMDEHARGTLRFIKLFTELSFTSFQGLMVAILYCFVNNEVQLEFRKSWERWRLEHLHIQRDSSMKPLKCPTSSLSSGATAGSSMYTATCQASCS

| Structure (SMILES) | EC50 [nM] | Emax [%] |
| --- | --- | --- |
| Cn1cc(CCn2c(CN3CCC(c4cccc(OCc5ccc(Cl)cc5F)n4)CC3)nc3ccc(C(=O)O)cc32)nn1 [Compound 319B, 2-[(4-{6-[(4-chloro-2-fluorobenzyl)oxy]pyridin-2-yl}piperidin-1-yl)methyl]-1-[2-(1-methyl-1H-1,2,3-triazol-4-yl)ethyl]-1H-benzimidazole-6-carboxylicacid] | 1100 | 47 |
| CN1CC[C@@H]1Cn1c(CN2CCC(c3cccc(OCc4ccc(Cl)cc4F)n3)CC2)nc2ccc(C(=O)O)cc21 (stereo in doubt) [Compound 275B, 2-[(4-{6-[(4-chloro-2-fluorobenzyl)oxy]pyridin-2-yl}piperidin-1-yl)methyl]-1-[(1-methylazetidin-2-yl)methyl]-1H-benzimidazole-6-carboxylic acid] | > 20000 |  |
| N#Cc1ccc(COc2cccc(C3CCN(Cc4nc5ccc(C(=O)O)nc5n4Cc4ncco4)CC3)n2)c(F)c1 [Compound 214B, 2-[(4-{6-[(4-cyano-2-fluorobenzyl)oxy]pyridin-2-yl}piperidin-1-yl)methyl]-3-(1,3-oxazol-2-ylmethyl)-3H-imidazo[4,5-b]pyridine-5-carboxylic acid] |  | 71 |
| COCCn1c(CN2CCC(c3cccc(OCc4ccc(Cl)cc4F)n3)CC2)nc2ccc(C(=O)O)cc21 [Compound 176B, 2-[(4-{6-[(4-chloro-2-fluorobenzyl)oxy]pyridin-2-yl}piperidin-1-yl)methyl]-1-(2-methoxyethyl)-1H-benzimidazole-6-carboxylic acid] | 2400 | 87 |
| CCN1CCC[C@@H]1Cn1c(CN2CCC(c3cccc(OCc4ccc(Cl)cc4F)n3)CC2)nc2ccc(C(=O)O)cc21 [Compound 329B, 2-[(4-{6-[(4-chloro-2-fluorobenzyl)oxy]pyridin-2-yl}piperidin-1-yl)methyl]-1-{[(2R)-1-ethylpyrrolidin-2-yl]methyl}-1H-benzimidazole-6-carboxylic acid] | 4000 | 91 |
| N#Cc1ccc(COc2cccc(C3CCN(Cc4nc5ccc(C(=O)O)cc5n4C[C@@H]4CCO4)CC3)n2)cc1 [Compound 130B, 2-[(4-{6-[(4-cyanobenzyl)oxy]pyridin-2-yl}piperidin-1-yl)methyl]-1-[(2S)-oxetan-2-ylmethyl]-1H-benzimidazole-6-carboxylic acid] | > 11000 | 84 |
| CC1(Cn2c(CN3CCC(c4cccc(OCc5ccc(Cl)cc5F)n4)CC3)nc3ccc(C(=O)O)cc32)CCO1 (centres unmarked) [Compound 265B, 2-[(4-{6-[(4-chloro-2-fluorobenzyl)oxy]pyridin-2-yl}piperidin-1-yl)methyl]-1-[(2-methyloxetan-2-yl)methyl]-1H-benzimidazole-6-carboxylic acid] | > 15000 | 100 |
| Cc1nc(Cn2c(CN3CCC(c4cccc(OCc5ccc(Cl)cc5F)n4)CC3)nc3ccc(C(=O)O)cc32)c(C)o1 [Compound 330B, 2-[(4-{6-[(4-chloro-2-fluorobenzyl)oxy]pyridin-2-yl}piperidin-1-yl)methyl]-1-[(2,5-dimethyl-1,3-oxazol-4-yl)methyl]-1H-benzimidazole-6-carboxylic acid] | 9300 | 100 |
| O=C(O)c1ccc2nc(CN3CCC(c4cccc(OCc5ccc(Cl)cc5F)n4)CC3)n(CCC3CCOCC3)c2c1 [Compound 340B, 2-[(4-{6-[(4-chloro-2-fluorobenzyl)oxy]pyridin-2-yl}piperidin-1-yl)methyl]-1-[2-(tetrahydro-2H-pyran-4-yl)ethyl]-1H-benzimidazole-6-carboxylic acid] | 600 | 70 |
| COCCn1c(CN2CCN(c3nc(OCc4ccc(Cl)cc4F)ccc3F)CC2)nc2ccc(C(=O)O)cc21 [Compound 179B, 2-[(4-{6-[(4-chloro-2-fluorobenzyl)oxy]-3-fluoropyridin-2-yl}piperazin-1-yl)methyl]-1-(2-methoxyethyl)-1H-benzimidazole-6-carboxylic acid] | 1600 | 83 |
| COCCn1c(CN2CCN(c3ccc(F)c(OCc4ccc(Cl)cc4F)n3)CC2C)nc2ccc(C(=O)O)cc21 (stereo in doubt) [Compound 174B, 2-{[(2S)-4-{6-[(4-chloro-2-fluorobenzyl)oxy]-5-fluoropyridin-2-yl}-2-methylpiperazin-1-yl]methyl}-1-(2-methoxyethyl)-1H-benzimidazole-6-carboxylic acid] | 870 |  |
| COCCn1c(CN2CCN(c3cccc(OCc4ccc(Cl)cc4F)n3)CC23CC3)nc2ccc(C(=O)O)cc21 [Compound 349B, 2-[(7-{6-[(4-chloro-2-fluorobenzyl)oxy]pyridin-2-yl}-4,7-diazaspiro[2.5]oct-4-yl)methyl]-1-(2-methoxyethyl)-1H-benzimidazole-6-carboxylic acid] | 1200 | 58 |
| O=C(O)c1ccc2nc(CN3CCC(c4cccc(OCc5ccc(Cl)cc5F)n4)CC3)n(CCN3CCOCC3)c2c1 [Compound 325B, 2-[(4-{6-[(4-chloro-2-fluorobenzyl)oxy]pyridin-2-yl}piperidin-1-yl)methyl]-1-[2-(morpholin-4-yl)ethyl]-1H-benzimidazole-6-carboxylic acid] | 2200 | 87 |
| COC[C@@H](C)n1c(CN2CCC(c3cccc(OCc4ccc(Cl)cc4F)n3)CC2)nc2ccc(C(=O)O)cc21 [Compound 321B, 2-[(4-{6-[(4-chloro-2-fluorobenzyl)oxy]pyridin-2-yl}piperidin-1-yl)methyl]-1-[(2R)-1-methoxypropan-2-yl]-1H-benzimidazole-6-carboxylic acid] | 1100 | 81 |
| N#Cc1ccc(COc2cccc(C3CCN(Cc4nc5ccc(C(=O)O)cc5n4CC4CCO4)CC3)n2)c(F)c1 (centres unmarked) [Compound 109B, 2-[(4-{6-[(4-cyano-2-fluorobenzyl)oxy]pyridin-2-yl}piperidin-1-yl)methyl]-1-[oxetan-2-ylmethyl]-1H-benzimidazole-6-carboxylic acid] |  | 83 |
| O=C(O)c1ccc2nc(CN3CCC(c4cccc(OCc5ccc(Cl)cc5F)n4)CC3)n(Cc3ncon3)c2c1 [Compound 271B, 2-[(4-{6-[(4-chloro-2-fluorobenzyl)oxy]pyridin-2-yl}piperidin-1-yl)methyl]-1-(1,2,4-oxadiazol-3-ylmethyl)-1H-benzimidazole-6-carboxylic acid] | > 20000 |  |

Continued by falling EC50, values first:

| EC50 [nM] | Emax [%] | Structure (SMILES) |
| --- | --- | --- |
| 390 | 72 | CC1(C)CC(Cn2c(CN3CCC(c4cccc(OCc5ccc(Cl)cc5F)n4)CC3)nc3ccc(C(=O)O)cc32)O1 (centres unmarked) [Compound 235B, 2-[(4-{6-[(4-chloro-2-fluorobenzyl)oxy]pyridin-2-yl}piperidin-1-yl)methyl]-1-[(4,4-dimethyloxetan-2-yl)methyl]-1H-benzimidazole-6-carboxylic acid] |
| 380 | 75 | COCCCn1c(CN2CCC(c3cccc(OCc4ccc(Cl)cc4F)n3)CC2)nc2ccc(C(=O)O)cc21 [Compound 313B, 2-[(4-{6-[(4-chloro-2-fluorobenzyl)oxy]pyridin-2-yl}piperidin-1-yl)methyl]-1-(3-methoxypropyl)-1H-benzimidazole-6-carboxylic acid] |
| 370 | 75 | CCn1cncc1Cn1c(CN2CCN(c3cccc(OCc4ccc(C#N)cc4F)n3)CC2)nc2ccc(C(=O)O)cc21 [Compound 152B, 2-[(4-{6-[(4-cyano-2-fluorobenzyl)oxy]pyridin-2-yl}piperazin-1-yl)methyl]-1-[(1-ethyl-1H-imidazol-5-yl)methyl]-1H-benzimidazole-6-carboxylic acid] |
| 350 | 71 | Cn1cc(Cn2c(CN3CCC(c4cccc(OCc5ccc(Cl)cc5F)n4)CC3)nc3ccc(C(=O)O)cc32)nn1 [Compound 311B, 2-[(4-{6-[(4-chloro-2-fluorobenzyl)oxy]pyridin-2-yl}piperidin-1-yl)methyl]-1-[(1-methyl-1H-1,2,3-triazol-4-yl)methyl]-1H-benzimidazole-6-carboxylic acid] |
| 340 | 74 | C[C@H]1CN(c2cccc(OCc3ccc(Cl)cc3F)n2)CCN1Cc1nc2ccc(C(=O)O)cc2n1Cc1ncco1 [Compound 148B, 2-{[(2S)-4-{6-[(4-chloro-2-fluorobenzyl)oxy]pyridin-2-yl}-2-methylpiperazin-1-yl]methyl}-1-(1,3-oxazol-2-ylmethyl)-1H-benzimidazole-6-carboxylic acid] |
| 300 | 66 | CN1CCC[C@@H]1Cn1c(CN2CCC(c3cccc(OCc4ccc(Cl)cc4F)n3)CC2)nc2ccc(C(=O)O)cc21 [Compound 309B, 2-[(4-{6-[(4-chloro-2-fluorobenzyl)oxy]pyridin-2-yl}piperidin-1-yl)methyl]-1-{[(2R)-1-methylpyrrolidin-2-yl]methyl}-1H-benzimidazole-6-carboxylic acid] |
| 200 | 79 | COCCn1c(CN2CCN(c3cccc(OCc4ccc(C#N)cc4)n3)CC2)nc2ccc(C(=O)O)cc21 [Compound 171B, 2-[(4-{6-[(4-cyanobenzyl)oxy]pyridin-2-yl}piperazin-1-yl)methyl]-1-(2-methoxyethyl)-1H-benzimidazole-6-carboxylic acid] |
| 170 |  | O=C(O)c1ccc2nc(CN3CCC(c4cccc(OCc5ccc(Cl)cc5F)n4)CC3)n(CCn3cccn3)c2c1 [Compound 303B, 2-[(4-{6-[(4-chloro-2-fluorobenzyl)oxy]pyridin-2-yl}piperidin-1-yl)methyl]-1-[2-(1H-pyrazol-1-yl)ethyl]-1H-benzimidazole-6-carboxylic acid] |
| 170 | 68 | COCCn1c(CN2CCC(c3cccc(OCc4ccccc4)n3)CC2)nc2ccc(C(=O)O)cc21 [Compound 181B, 2-({4-[6-(benzyloxy)pyridin-2-yl]piperidin-1-yl}methyl)-1-(2-methoxyethyl)-1H-benzimidazole-6-carboxylic acid] |
